Assay results from PubChem BioAssay AID330 (DTP/NCI, 2004).
“And” between values parts separate entries of the source, which are not always exact repeats. Equal entries are not always repeated. Inconclusive results and toxic doses are left out. Peptide text beside a SMILES is read from it. * marks the point of attachment. Boc = CC(C)(C)OC(=O)*; NHNH2 = NN*

Test system: P388 leukemia ip, CD2F1 mice, survival T/C
Assay: NCI In Vivo Anticancer Drug Screen. Data for tumor model P388 Leukemia (intraperitoneal) in CD2F1 (CDF1) mice
Details: endpoint: median survival time, higher = longer survival
Method in brief: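 Mice carrying the transplanted tumor received test compound or vehicle. Survival was recorded in each group, and the value is the treated-group measurement divided by that of the vehicle-treated control group.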

[1] = dose: 50.0 mg/kg/injection, schedule: Q01DX009 (ip), vehicle: saline
[2] = dose: 200.0 mg/kg/injection, schedule: Q01DX009 (ip), vehicle: saline
[3] = dose: 25.0 mg/kg/injection, schedule: Q01DX009 (ip), vehicle: saline with Tween-80
[4] = dose: 50.0 mg/kg/injection, schedule: Q01DX009 (ip), vehicle: saline with Tween-80
[5] = dose: 100.0 mg/kg/injection, schedule: Q01DX009 (ip), vehicle: saline with Tween-80
[6] = dose: 60.0 mg/kg/injection, schedule: Q01DX005 (ip), vehicle: saline with Tween-80
[7] = dose: 120.0 mg/kg/injection, schedule: Q01DX005 (ip), vehicle: saline with Tween-80
[8] = dose: 240.0 mg/kg/injection, schedule: Q01DX005 (ip), vehicle: saline with Tween-80
[9] = dose: 100.0 mg/kg/injection, schedule: Q01DX001 (ip), vehicle: saline with Tween-80
[10] = dose: 400.0 mg/kg/injection, schedule: Q01DX001 (ip), vehicle: saline with Tween-80
[11] = dose: 50.0 mg/kg/injection, schedule: Q01DX005 (ip), vehicle: saline with Tween-80
[12] = dose: 100.0 mg/kg/injection, schedule: Q01DX005 (ip), vehicle: saline with Tween-80
[13] = dose: 200.0 mg/kg/injection, schedule: Q01DX005 (ip), vehicle: saline with Tween-80
[14] = dose: 12.5 mg/kg/injection, schedule: Q01DX009 (ip), vehicle: saline with Tween-80

COc1ccccc1OC(C)=O
T/C [1]: 97 % of control | T/C [2]: 88 % of control

N#CC(C#N)=Cc1ccc2c(c1)CCC2
T/C [3]: 90 % of control | T/C [4]: 95 % of control | T/C [5]: 109 % of control

COc1ccc2nc(NC(=O)Nc3c(Cl)cccc3Cl)sc2c1
T/C [6]: 95 % of control | T/C [7]: 101 % of control | T/C [8]: 88 % of control

CCCCOP(=O)(O)OCCCC.[Th]
T/C (dose: 25.0 mg/kg/injection, schedule: Q01DX001 (ip), vehicle: saline with Tween-80): 113 % of control | T/C (dose: 50.0 mg/kg/injection, schedule: Q01DX001 (ip), vehicle: saline with Tween-80): 100 % of control | T/C [9]: 102 % of control | T/C [10]: 97 % of control

CCN(CC)CCN(C)C(C)C(=O)Nc1ccccc1Cl (configuration not stated)
T/C (dose: 60.0 mg/kg/injection, schedule: Q01DX005 (ip), vehicle: saline): 105 % of control | T/C (dose: 120.0 mg/kg/injection, schedule: Q01DX005 (ip), vehicle: saline): 100 % of control

CC1[C@@H]2[C@@H](C=C3C4CCC5Cc6nc7c(nc6C[C@@]5(C)C4C[C@H](O)[C@]32CO)CC2CCC3C4=C[C@H]5O[C@@]6(O[C@@](C)(CO)C[C@@H]6O)C(C)[C@@]5(O)[C@]4(C)[C@@H](O)CC3[C@]2(C)C7)O[C@]12CCC(C)(C)O2 (some centres not stated)
T/C (dose: 12.5 micrograms/kg/injection, schedule: Q01DX009 (ip), vehicle: saline + alcohol): 107 % of control | T/C (dose: 25.0 micrograms/kg/injection, schedule: Q01DX009 (ip), vehicle: saline + alcohol): 116 % of control | T/C (dose: 50.0 micrograms/kg/injection, schedule: Q01DX009 (ip), vehicle: saline + alcohol): 107 % of control | T/C (dose: 100.0 micrograms/kg/injection, schedule: Q01DX009 (ip), vehicle: saline + alcohol): 100 % of control

COc1ccc(-c2c(C#N)c(N)nc(C)c2-c2ccccc2)cc1
T/C [9]: 100 % of control | T/C (dose: 200.0 mg/kg/injection, schedule: Q01DX001 (ip), vehicle: saline with Tween-80): 96 % of control | T/C [10]: 91 % of control

CCN(CC)CCOc1ccc(C(O)(Cc2ccc(OC)cc2)c2ccccc2)cc1 (configuration not stated)
T/C [11]: 101 % of control | T/C [12]: 92 % of control | T/C [13]: 92 % of control

COc1ccc(/C=C2/C(=O)ON=C2C)cc1OC
T/C [6]: 99 % of control | T/C [7]: 96 % of control | T/C [8]: 96 % of control

CC1=C(C#N)C(=O)OC1(C)C(CC(=O)c1ccccc1)c1ccccc1 (configuration not stated)
T/C [6]: 92 % of control | T/C [7]: 87 % of control | T/C [8]: 91 % of control

CCN(CC)CCSC1OC(=O)c2ccccc21 (configuration not stated)
T/C (dose: 1.25 mg/kg/injection, schedule: Q01DX009 (ip), vehicle: saline): 104 % of control | T/C (dose: 2.5 mg/kg/injection, schedule: Q01DX009 (ip), vehicle: saline): 103 % of control | T/C (dose: 5.0 mg/kg/injection, schedule: Q01DX009 (ip), vehicle: saline): 109 % of control | T/C (dose: 10.0 mg/kg/injection, schedule: Q01DX009 (ip), vehicle: saline): 109 % of control

CCCCCCCC[N+](C)(CCCCCCCC)CCCCCCCC
T/C (dose: 1.0 mg/kg/injection, schedule: Q04DX003 (ip), vehicle: saline): 104 % of control | T/C (dose: 2.0 mg/kg/injection, schedule: Q04DX003 (ip), vehicle: saline): 104 % of control | T/C (dose: 4.0 mg/kg/injection, schedule: Q04DX003 (ip), vehicle: saline): 108 % of control

CCCCCCCCCCCCCC(=O)OCCN1CCN(CCCN2c3ccccc3Sc3ccc(C(F)(F)F)cc32)CC1
T/C (dose: 3.12 mg/kg/injection, schedule: Q01DX009 (ip), vehicle: saline with Tween-80): 106 % of control | T/C (dose: 6.25 mg/kg/injection, schedule: Q01DX009 (ip), vehicle: saline with Tween-80): 102 % of control | T/C [14]: 112 % of control and 113 % of control | T/C [3]: 116 % of control

O=C1c2ccccc2C(=O)c2c3c(cc([N+](=O)[O-])c21)OCO3
T/C [6]: 100 % of control | T/C [7]: 89 % of control | T/C [8]: 87 % of control

C=CC(C)(C)N1C(=O)C(C(C)=O)=C(O)C1Cc1c[nH]c2ccccc12 (configuration not stated)
T/C (dose: 8.75 mg/kg/injection, schedule: Q01DX005 (ip), vehicle: Klucel (hydroxypropylcellulose) (HPC)): 99 % of control | T/C (dose: 17.5 mg/kg/injection, schedule: Q01DX005 (ip), vehicle: Klucel (hydroxypropylcellulose) (HPC)): 99 % of control | T/C (dose: 35.0 mg/kg/injection, schedule: Q01DX005 (ip), vehicle: Klucel (hydroxypropylcellulose) (HPC)): 97 % of control

ClC1CCCCC1C(C1CCCCC1)C1CCCCC1 (configuration not stated)
T/C [11]: 98 % of control | T/C [12]: 100 % of control

COc1cc(C(C)c2cc3c(cc2OC)OCO3)ccc1OCc1ccccc1 (configuration not stated)
T/C (dose: 25.0 mg/kg/injection, schedule: Q01DX005 (ip), vehicle: distilled water + Tween-80): 103 % of control | T/C (dose: 50.0 mg/kg/injection, schedule: Q01DX005 (ip), vehicle: distilled water + Tween-80): 99 % of control and 87 % of control | T/C (dose: 100.0 mg/kg/injection, schedule: Q01DX005 (ip), vehicle: distilled water + Tween-80): 100 % of control | T/C (dose: 200.0 mg/kg/injection, schedule: Q01DX005 (ip), vehicle: distilled water + Tween-80): 94 % of control

CN=C(N)N/N=C(\C)c1ccc2c(c1)Cc1cc(Cl)ccc1-2
T/C (dose: 12.5 mg/kg/injection, schedule: Q04DX002 (ip), vehicle: saline with Tween-80): 112 % of control | T/C (dose: 25.0 mg/kg/injection, schedule: Q04DX002 (ip), vehicle: saline with Tween-80): 113 % of control and 118 % of control | T/C (dose: 50.0 mg/kg/injection, schedule: Q04DX002 (ip), vehicle: saline with Tween-80): 113 % of control and 118 % of control | T/C (dose: 100.0 mg/kg/injection, schedule: Q04DX002 (ip), vehicle: saline with Tween-80): 102 % of control

COC(=O)COC(=O)CCCCC(=O)OCC(=O)OC
T/C [1]: 111 % of control | T/C (dose: 100.0 mg/kg/injection, schedule: Q01DX009 (ip), vehicle: saline): 109 % of control | T/C [2]: 103 % of control

CC(C)CC(NC(=O)C(Cc1c[nH]c2ccccc12)NC(=O)OC(C)(C)C)C(=O)NN (stereo not drawn) (Boc-Trp-Leu-NHNH2; configuration not given here)
T/C (dose: 12.5 mg/kg/injection, schedule: Q01DX009 (ip), vehicle: other): 100 % of control | T/C (dose: 25.0 mg/kg/injection, schedule: Q01DX009 (ip), vehicle: other): 94 % of control | T/C (dose: 50.0 mg/kg/injection, schedule: Q01DX009 (ip), vehicle: other): 97 % of control | T/C (dose: 100.0 mg/kg/injection, schedule: Q01DX009 (ip), vehicle: other): 105 % of control and 110 % of control

Cc1cc(N)c([N+](=O)[O-])cc1C
T/C [4]: 101 % of control | T/C [5]: 100 % of control | T/C (dose: 200.0 mg/kg/injection, schedule: Q01DX009 (ip), vehicle: saline with Tween-80): 96 % of control | T/C (dose: 400.0 mg/kg/injection, schedule: Q01DX009 (ip), vehicle: saline with Tween-80): 95 % of control

CCCCOCN(COCCCC)C(C)Cc1ccccc1 (configuration not stated)
T/C [3]: 120 % of control

CN(N=O)C(=O)N[C@@H](C=O)[C@@H](O)[C@H](O)[C@H](O)CO
T/C (dose: 31.25 mg/kg/injection, schedule: Q01DX001 (ip), vehicle: other): 105 % of control and 106 % of control | T/C (dose: 62.5 mg/kg/injection, schedule: Q01DX001 (ip), vehicle: other): 105 % of control and 109 % of control | T/C (dose: 80.0 mg/kg/injection, schedule: Q04DX003 (ip), vehicle: citric acid): 110 % of control | T/C (dose: 80.0 mg/kg/injection, schedule: Q04DX003 (ip), vehicle: other): 108 % of control | T/C (dose: 120.0 mg/kg/injection, schedule: Q04DX003 (ip), vehicle: other): 107 % of control and 114 % of control | T/C (dose: 125.0 mg/kg/injection, schedule: Q01DX001 (ip), vehicle: other): 111 % of control and 117 % of control | T/C (dose: 180.0 mg/kg/injection, schedule: Q04DX003 (ip), vehicle: citric acid): 119 % of control | T/C (dose: 180.0 mg/kg/injection, schedule: Q04DX003 (ip), vehicle: other): 118 % of control and 122 % of control | T/C (dose: 240.0 mg/kg/injection, schedule: Q04DX003 (ip), vehicle: other): 112 % of control and 120 % of control | T/C (dose: 500.0 mg/kg/injection, schedule: Q01DX001 (ip), vehicle: other): 90 % of control

CC([NH-])CC(C)[NH-].O=[N+]([O-])O.O=[N+]([O-])O.[Pt+2] (configuration not stated)
T/C (dose: 25.0 mg/kg/injection, schedule: Q04DX002 (ip), vehicle: saline): 159 % of control

CC(NN(C)C(=S)Nc1ccccc1)c1ccccn1 (configuration not stated)
T/C [11]: 100 % of control | T/C [12]: 103 % of control | T/C [13]: 109 % of control

COc1nc(N)nc(Cl)n1
T/C [14]: 105 % of control | T/C [3]: 107 % of control | T/C [4]: 101 % of control | T/C [5]: 98 % of control
